Test results: patent US9988635B2, “Modulation of growth hormone receptor expression and insulin-like growth factor expression” (Antisense Therapeutics Limited, priority 2003, dated 2018)
In the oligonucleotide strings, read from the 5' end, every base follows the letter of its sugar. An asterisk marks phosphorothioate; unmarked linkages are phosphodiester. Other units and linkages are bracketed, terminal groups are in braces. A string of capitals states the bases alone. e = 2'-O-(2-methoxyethyl) (MOE); [5mC] = 5-methylcytosine; d = 2'-deoxy (DNA)

Tested on: human growth hormone receptor mRNA
Assay: Inhibition of human growth hormone receptor mRNA levels in MCF7 cells, quantitative real-time PCR
Format: cell-based
Parameters: concentration or dose not given beside the values
Conditions: averages from three experiments
Procedure: The human breast carcinoma cell line MCF-7 was obtained from the American Type Culture Collection (Manassas, Va.). MCF-7 cells were routinely cultured in DMEM low glucose (Gibco/Life Technologies, Gaithersburg, Md.) supplemented with 10% fetal calf serum (Gibco/Life Technologies, Gaithersburg, Md.). Cells were routinely passaged by trypsinization and dilution when they reached 90% confluence. Cells were seeded into 96-well plates (Falcon-Primaria #3872) at a density of 7000 cells/well for use in RT-PCR analysis.
When cells reached 65-75% confluency, they were treated with oligonucleotide. For cells grown in 96-well plates, wells were washed once with 100 μL OPTI-MEM™-1 reduced-serum medium (Invitrogen Corporation, Carlsbad, Calif.) and then treated with 130 μL of OPTI-MEM™-1 containing 3.75 μg/mL LIPOFECTIN™ (Invitrogen Corporation, Carlsbad, Calif.) and the desired concentration of oligonucleotide. Cells are treated and data are obtained in triplicate. After 4-7 hours of treatment at 37° C., the medium was replaced with fresh medium. Cells were harvested 16-24 hours after oligonucleotide treatment.
Total RNA was isolated using an RNEASY 96™ kit and buffers purchased from Qiagen Inc. (Valencia, Calif.) following the manufacturer's recommended procedures. Briefly, for cells grown on 96-well plates, growth medium was removed from the cells and each well was washed with 200 μL cold PBS. 150 μL Buffer RLT was added to each well and the plate vigorously agitated for 20 seconds. 150 μL of 70% ethanol was then added to each well and the contents mixed by pipetting three times up and down. The samples were then transferred to the RNEASY 96™ well plate attached to a QIAVAC™ manifold fitted with a waste collection tray and attached to a vacuum source. Vacuum was applied for 1 minute. 500 μL of Buffer RW1 was added to each well of the RNEASY 96™ plate and incubated for 15 minutes and the vacuum was again applied for 1 minute. An additional 500 μL of Buffer RW1 was added to each well of the RNEASY 96™ plate and the vacuum was applied for 2 minutes. 1 mL of Buffer RPE was then added to each well of the RNEASY 96™ plate and the vacuum applied for a period of 90 seconds. The Buffer RPE wash was then repeated and the vacuum was applied for an additional 3 minutes. The plate was then removed from the QIAVAC™ manifold and blotted dry on paper towels. The plate was then re-attached to the QIAVAC™ manifold fitted with a collection tube rack containing 1.2 mL collection tubes. RNA was then eluted by pipetting 140 μL of RNAse free water into each well, incubating 1 minute, and then applying the vacuum for 3 minutes.
Quantitation of growth hormone receptor mRNA levels was accomplished by real-time quantitative PCR using the ABI PRISM™ 7600, 7700, or 7900 Sequence Detection System (PE-Applied Biosystems, Foster City, Calif.) according to manufacturer's instructions. This is a closed-tube, non-gel-based, fluorescence detection system which allows high-throughput quantitation of polymerase chain reaction (PCR) products in real-time. As opposed to standard PCR in which amplification products are quantitated after the PCR is completed, products in real-time quantitative PCR are quantitated as they accumulate. This is accomplished by including in the PCR reaction an oligonucleotide probe that anneals specifically between the forward and reverse PCR primers, and contains two fluorescent dyes. A reporter dye (e.g., FAM or JOE, obtained from either PE-Applied Biosystems, Foster City, Calif., Operon Technologies Inc., Alameda, Calif. or Integrated DNA Technologies Inc., Coralville, Iowa) is attached to the 5′ end of the probe and a quencher dye (e.g., TAMRA, obtained from either PE-Applied Biosystems, Foster City, Calif., Operon Technologies Inc., Alameda, Calif. or Integrated DNA Technologies Inc., Coralville, Iowa) is attached to the 3′ end of the probe. When the probe and dyes are intact, reporter dye emission is quenched by the proximity of the 3′ quencher dye. […]

Substance	% INHIB of human growth hormone receptor mRNA levels
272311 (antisense eT*eT*eG*e[5mC]*eA*d[5mC]*dT*dA*dT*dT*dT*d[5mC]*dA*dT*d[5mC]*eA*eA*e[5mC]*eA*eG) [compound 272311]	47%
272330 (antisense eG*eA*eT*eG*e[5mC]*dA*d[5mC]*dT*dT*dT*dT*dT*dG*dG*d[5mC]*eA*eT*e[5mC]*eT*eG) [compound 272330]	47%
272361 (antisense eA*eT*eT*eT*eT*d[5mC]*d[5mC]*dT*dT*d[5mC]*d[5mC]*dT*dA*dG*dA*eA*eA*eA*eT*eA) [compound 272361]	10%
227480 (antisense eA*eT*eG*eT*eA*dA*dA*dT*dG*dT*d[5mC]*d[5mC]*dT*d[5mC]*dT*eT*eG*eG*eT*eT) [compound 227480]	66%
272309 (antisense eT*eA*eA*e[5mC]*eA*dG*d[5mC]*dT*dG*dT*dT*dT*dT*d[5mC]*d[5mC]*e[5mC]*e[5mC]*eA*eG*e[5mC]) [compound 272309]	85%
272333 (antisense eG*eT*eG*e[5mC]*eT*d[5mC]*dA*d[5mC]*dA*dT*dA*dG*d[5mC]*d[5mC]*dA*e[5mC]*eA*eT*eG*eA) [compound 272333]	72%
272332 (antisense e[5mC]*eT*e[5mC]*eT*eT*dT*dG*dT*d[5mC]*dA*dG*dG*d[5mC]*dA*dA*eG*eG*eG*e[5mC]*eA) [compound 272332]	75%
227469 (antisense e[5mC]*eT*eT*eA*eG*dA*dA*dG*dT*d[5mC]*dT*dG*dT*d[5mC]*dT*eG*eT*eG*eT*e[5mC]) [compound 227469]	63%
272349 (antisense eA*eG*eT*e[5mC]*eT*dT*d[5mC]*d[5mC]*dA*dA*dA*d[5mC]*dA*d[5mC]*dA*e[5mC]*eA*eG*e[5mC]*eT) [compound 272349]	68%
272356 (antisense eA*eT*eG*eG*eA*dG*dG*d[5mC]*dT*dG*dG*dA*dG*dG*dT*eT*e[5mC]*eA*eA*eA) [compound 272356]	63%
272347 (antisense eT*e[5mC]*eT*eA*e[5mC]*dA*d[5mC]*dT*dG*dA*dT*dG*dA*dT*dA*e[5mC]*eT*eT*eT*eA) [compound 272347]	62%
227500 (antisense e[5mC]*eA*eT*eA*eG*d[5mC]*dA*dG*d[5mC]*dA*dA*dA*dG*dT*dA*eG*e[5mC]*eA*eG*eA) [compound 227500]	69%
272358 (antisense eT*e[5mC]*eT*e[5mC]*e[5mC]*dA*dG*dA*dT*dA*dG*dA*dA*dT*d[5mC]*eT*eA*eA*eA*e[5mC]) [compound 272358]	53%
227499 (antisense eT*eA*eT*eA*eA*dA*dA*dG*dG*dG*d[5mC]*dT*dT*dT*dG*eT*eA*eA*eA*eA) [compound 227499]	14%
272321 (antisense eA*eA*e[5mC]*e[5mC]*e[5mC]*dA*dA*dG*dA*dG*dT*d[5mC]*dA*dT*d[5mC]*eA*e[5mC]*eT*eG*eT) [compound 272321]	64%
272307 (antisense eG*eT*eG*eA*eA*dT*dT*dT*dA*dG*dG*d[5mC]*dT*d[5mC]*d[5mC]*eT*eT*eA*eG*eA) [compound 272307]	55%
272329 (antisense eA*e[5mC]*eT*eT*eT*dT*dT*dG*dG*d[5mC]*dA*dT*d[5mC]*dT*dG*e[5mC]*e[5mC]*eT*e[5mC]*eA) [compound 272329]	63%
227488 (antisense eA*eG*eT*eT*eG*dG*dT*d[5mC]*dT*dG*dT*dG*d[5mC]*dT*d[5mC]*eA*e[5mC]*eA*eT*eA) [compound 227488]	86%

Substance	% INHIB of human growth hormone receptor mRNA levels
272306 (antisense eT*eT*eA*eG*eA*dA*dG*dA*dA*dT*dT*dT*dG*dT*d[5mC]*eT*eT*eT*eA*eG) [compound 272306]	13%
272328 (antisense eG*eG*e[5mC]*eA*eT*dT*dG*dT*d[5mC]*d[5mC]*dA*dT*dA*dA*dG*eG*eA*eA*eG*eT) [compound 272328]	85%
272319 (antisense eA*eT*eT*eT*eT*d[5mC]*d[5mC]*dT*dT*d[5mC]*d[5mC]*dT*dT*dG*dA*eG*eG*eA*eG*eA) [compound 272319]	67%
272323 (antisense eT*eG*eT*eG*eT*d[5mC]*dT*dG*dA*dT*dT*d[5mC]*d[5mC]*dT*d[5mC]*eA*eG*eT*e[5mC]*eT) [compound 272323]	67%
272331 (antisense e[5mC]*eA*eG*eT*e[5mC]*dG*d[5mC]*dA*dT*dT*dG*dA*dG*dT*dA*eT*eG*eA*eG*eG) [compound 272331]	67%
272357 (antisense eT*eA*eG*eG*eG*dT*d[5mC]*d[5mC]*dA*dT*d[5mC]*dT*dT*dT*d[5mC]*eA*eA*eG*eA*e[5mC]) [compound 272357]	62%
272351 (antisense eA*eT*eA*eG*eA*dA*dA*dT*dG*dT*dT*dG*dT*d[5mC]*dA*eG*eG*e[5mC]*eT*eG) [compound 272351]	57%
272320 (antisense eA*eG*eA*eT*eT*dG*dT*dG*dT*dT*d[5mC]*dA*d[5mC]*d[5mC]*dT*e[5mC]*e[5mC]*eT*e[5mC]*eT) [compound 272320]	70%
227475 (antisense e[5mC]*e[5mC]*eT*eG*e[5mC]*dT*dG*dG*dT*dG*dT*dA*dA*dT*dG*eT*e[5mC]*eG*e[5mC]*eT) [compound 227475]	68%
227489 (antisense eT*eG*eT*eT*e[5mC]*dA*dG*dT*dT*dG*dG*dT*d[5mC]*dT*dG*eT*eG*e[5mC]*eT*e[5mC]) [compound 227489]	75%
272322 (antisense e[5mC]*eT*eG*eG*e[5mC]*dT*d[5mC]*dA*dT*d[5mC]*dA*dA*dT*dA*dT*e[5mC]*eT*eA*eG*e[5mC]) [compound 272322]	84%
272339 (antisense eG*eT*eT*eT*eT*dA*d[5mC]*dA*dT*dA*dT*d[5mC]*d[5mC]*dA*dA*eA*e[5mC]*eT*eA*eT) [compound 272339]	72%
272317 (antisense eA*eG*e[5mC]*e[5mC]*e[5mC]*dA*dA*dA*dT*dA*dT*dT*d[5mC]*d[5mC]*dA*eA*eA*eG*eA*eT) [compound 272317]	65%
227483 (antisense eA*eG*eG*e[5mC]*eT*dT*dT*d[5mC]*dT*dG*dT*dG*dG*dT*dG*eA*eT*eG*eT*eA) [compound 227483]	75%
272312 (antisense eG*eG*eG*eT*eG*dG*dA*dT*d[5mC]*dT*dG*dG*dT*dT*dG*e[5mC]*eA*e[5mC]*eT*eA) [compound 272312]	57%
272335 (antisense eA*eA*eA*eT*eA*d[5mC]*dG*dT*dA*dG*d[5mC]*dT*d[5mC]*dT*dT*eG*eG*eG*eA*eA) [compound 272335]	47%
272343 (antisense eA*eA*eT*eG*e[5mC]*dT*d[5mC]*dT*d[5mC]*dA*dA*dG*dA*dA*dT*eG*eA*eT*eG*eT) [compound 272343]	48%
